Patent publication US20080009418A1, “Selective Inhibitors” (Alchemia LTD., priority 2004, published 2008)

What was measured:
Settings in all cases: compound at 10 μM
Human δ-opioid (DOP) = biological target: T1, Human δ-opioid (DOP) (Homo sapiens, UniProt P41143); experiment: Radioligand binding, human δ-opioid (DOP) membranes, FlashPlate, [3H]-Bremazocine
T1 construct: purchased Perkin Elmer Biosignal
Procedure, shortened: (§1)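 Cloned human receptor membranes were coated onto FlashPlate wells and incubated with radioligand and compound (added from a 0.5 mM DMSO daughter plate) for 1 hour at room temperature in the dark. Scintillation counting gave percent inhibition, with DMSO defining total and reference ligand defining non-specific binding.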

Human κ-Opioid (KOP) = biological target: T2, Human κ-Opioid (KOP) (Homo sapiens, UniProt P41145); experiment: Radioligand binding, human κ-opioid (KOP) membranes, filtration, [3H]-Diprenorphine
T2 construct: purchased Perkin Elmer Biosignal
Procedure, shortened: (§2)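 Percent inhibition of radioligand binding measured on recombinant human membranes: NK1 with [125I]-Substance P, KOP with [3H]-Diprenorphine. Incubation 1 h at room temperature, then harvest onto 0.3% PEI-soaked filters, cold Tris-HCl pH 7.4 washes and scintillation counting; non-specific binding from reference ligand wells.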

Human Melanocortin (MC3) = biological target: T3, Human Melanocortin (MC3) (Homo sapiens, UniProt P41968); experiment: Radioligand binding, human melanocortin MC3 membranes, FlashPlate, [125I]-NDP-αMSH
T3 construct: purchased Perkin Elmer Biosignal
Procedure, shortened: as §1

Human Melanocortin (MC4) = biological target: T4, Human Melanocortin (MC4) (Homo sapiens, UniProt P32245); experiment: Radioligand binding, human melanocortin MC4 membranes, FlashPlate, [125I]-NDP-αMSH
T4 construct: purchased Perkin Elmer Biosignal
Procedure, shortened: as §1

Human melanocortin (MC5) = biological target: T5, Human melanocortin (MC5) (Homo sapiens, UniProt P33032); experiment: Radioligand binding, human melanocortin MC5 membranes, FlashPlate, [125I]-NDP-αMSH
T5 construct: purchased Perkin Elmer Biosignal
Procedure, shortened: as §1

[1] = biological target: T6, Human melanin-concentrating hormone (MCH1) (Homo sapiens, UniProt Q99705); experiment: Radioligand binding, human melanin-concentrating hormone MCH1 membranes, FlashPlate, [125I]-S36057
T6 construct: purchased Perkin Elmer Biosignal
Procedure, shortened: as §1

Human μ-opioid (MOP) = biological target: T7, Human μ-opioid (MOP) (Homo sapiens, UniProt P35372); experiment: Radioligand binding, human μ-opioid (MOP) membranes, FlashPlate, [3H]-Naloxone
T7 construct: purchased Perkin Elmer Biosignal
Procedure, shortened: as §1

Human neurokinin (NK1) = biological target: T8, Human neurokinin (NK1) (Homo sapiens, UniProt P25103); experiment: Radioligand binding, human neurokinin NK1 membranes, filtration, [125I]-Substance P
T8 construct: purchased Perkin Elmer Biosignal
Procedure, shortened: as §2

[2] = biological target: T9, Human neuropeptide Y (NPY-Y1) (Homo sapiens, UniProt P25929); experiment: Radioligand binding, human neuropeptide Y NPY-Y1 membranes, FlashPlate, [125I]-PYY
T9 construct: purchased Perkin Elmer Biosignal
T9 sequence (P25929 1-384): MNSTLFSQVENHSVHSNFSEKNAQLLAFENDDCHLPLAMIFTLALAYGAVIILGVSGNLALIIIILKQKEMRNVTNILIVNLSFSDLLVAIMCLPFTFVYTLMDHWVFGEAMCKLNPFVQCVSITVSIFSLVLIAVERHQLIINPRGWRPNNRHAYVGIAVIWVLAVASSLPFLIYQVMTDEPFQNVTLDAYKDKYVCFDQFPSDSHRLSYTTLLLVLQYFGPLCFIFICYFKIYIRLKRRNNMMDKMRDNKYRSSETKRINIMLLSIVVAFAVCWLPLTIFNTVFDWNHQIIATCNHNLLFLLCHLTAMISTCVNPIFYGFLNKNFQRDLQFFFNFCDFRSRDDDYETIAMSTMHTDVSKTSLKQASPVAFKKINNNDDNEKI
Procedure, shortened: as §1

Human opioid (ORL1) = biological target: T10, Human opioid (ORL1) (Homo sapiens, UniProt P41146); experiment: Radioligand binding, human opioid ORL1 membranes, FlashPlate, [125I]-Nociceptin
T10 construct: purchased Perkin Elmer Biosignal
Procedure, shortened: as §1

Mouse urotensin (mUR2) = biological target: T11, Mouse urotensin (mUR2) (Mus musculus, UniProt Q8VIH9); experiment: Radioligand binding, mouse urotensin mUR2 membranes, FlashPlate, [125I]-Urotensin II
T11 construct: purchased Perkin Elmer Biosignal
T11 sequence (Q8VIH9 1-385): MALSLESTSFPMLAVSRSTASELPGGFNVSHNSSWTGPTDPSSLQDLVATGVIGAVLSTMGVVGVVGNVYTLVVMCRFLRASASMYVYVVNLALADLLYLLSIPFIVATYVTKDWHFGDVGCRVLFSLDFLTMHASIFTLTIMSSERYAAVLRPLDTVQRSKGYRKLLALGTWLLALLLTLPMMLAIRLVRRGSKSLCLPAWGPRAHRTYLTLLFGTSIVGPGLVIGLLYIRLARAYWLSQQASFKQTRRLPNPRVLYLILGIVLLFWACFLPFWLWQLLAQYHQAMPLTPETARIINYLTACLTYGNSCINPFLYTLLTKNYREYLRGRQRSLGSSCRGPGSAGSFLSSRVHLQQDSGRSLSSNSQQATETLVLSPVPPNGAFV
Procedure, shortened: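 Cloned mouse urotensin (mUR2) receptor membranes from Perkin Elmer Biosignal were immobilized in FlashPlate microplates using a proprietary coating. Each well got 19.5 μl buffer, then 0.5 μl of DMSO, reference ligand, or compound. Adding 5 μl of [125I]-Urotensin II, diluted to 5× final concentration in binding buffer, started binding. Plates were sealed with TopSeal-A and incubated 1 hour at room temperature in the dark. Wells were counted for 30 seconds each on a TopCount after a 60-second delay, and percentage inhibition was calculated.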

T8 sequence (P25103 whole entry): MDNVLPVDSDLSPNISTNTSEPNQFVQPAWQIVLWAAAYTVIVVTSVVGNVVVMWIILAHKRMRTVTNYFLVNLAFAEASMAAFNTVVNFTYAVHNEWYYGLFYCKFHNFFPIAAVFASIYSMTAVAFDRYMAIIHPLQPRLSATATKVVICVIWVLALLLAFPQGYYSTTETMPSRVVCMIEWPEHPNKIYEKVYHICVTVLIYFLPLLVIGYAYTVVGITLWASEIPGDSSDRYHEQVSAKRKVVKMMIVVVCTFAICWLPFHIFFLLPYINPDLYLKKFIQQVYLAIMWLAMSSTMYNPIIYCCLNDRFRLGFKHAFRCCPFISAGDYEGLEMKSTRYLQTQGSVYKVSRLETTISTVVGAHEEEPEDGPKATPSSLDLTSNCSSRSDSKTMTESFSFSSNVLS
T2 sequence (P41145 whole entry): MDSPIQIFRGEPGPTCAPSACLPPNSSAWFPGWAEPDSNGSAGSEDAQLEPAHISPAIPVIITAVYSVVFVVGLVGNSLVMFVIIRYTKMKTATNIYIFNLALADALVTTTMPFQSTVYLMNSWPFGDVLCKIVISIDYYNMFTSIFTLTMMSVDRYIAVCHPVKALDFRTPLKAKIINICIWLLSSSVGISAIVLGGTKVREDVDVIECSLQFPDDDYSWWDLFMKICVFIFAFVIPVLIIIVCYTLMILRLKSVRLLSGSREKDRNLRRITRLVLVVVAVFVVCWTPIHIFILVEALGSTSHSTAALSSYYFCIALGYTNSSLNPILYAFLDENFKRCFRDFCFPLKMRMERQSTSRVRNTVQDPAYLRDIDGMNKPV
T10 sequence (P41146 whole entry): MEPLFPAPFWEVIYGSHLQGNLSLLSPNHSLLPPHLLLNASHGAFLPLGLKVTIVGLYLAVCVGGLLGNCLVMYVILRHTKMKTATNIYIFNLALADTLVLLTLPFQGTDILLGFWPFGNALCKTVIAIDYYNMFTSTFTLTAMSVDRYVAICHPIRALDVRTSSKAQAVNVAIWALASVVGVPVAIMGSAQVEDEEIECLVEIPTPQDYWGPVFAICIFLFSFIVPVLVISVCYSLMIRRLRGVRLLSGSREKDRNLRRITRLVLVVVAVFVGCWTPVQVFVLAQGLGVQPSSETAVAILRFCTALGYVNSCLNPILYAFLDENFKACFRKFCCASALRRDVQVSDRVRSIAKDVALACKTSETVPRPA
T7 sequence (P35372 whole entry): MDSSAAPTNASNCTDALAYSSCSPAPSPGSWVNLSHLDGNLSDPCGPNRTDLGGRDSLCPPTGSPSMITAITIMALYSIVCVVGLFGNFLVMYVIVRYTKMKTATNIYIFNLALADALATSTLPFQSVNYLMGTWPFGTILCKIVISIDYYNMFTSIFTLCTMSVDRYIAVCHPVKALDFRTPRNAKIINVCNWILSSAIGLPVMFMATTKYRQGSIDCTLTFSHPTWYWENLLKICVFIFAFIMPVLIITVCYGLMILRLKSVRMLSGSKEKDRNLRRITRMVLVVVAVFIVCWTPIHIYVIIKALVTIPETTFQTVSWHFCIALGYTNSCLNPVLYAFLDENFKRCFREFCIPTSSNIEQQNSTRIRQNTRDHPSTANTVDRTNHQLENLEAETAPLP
T6 sequence (Q99705 whole entry): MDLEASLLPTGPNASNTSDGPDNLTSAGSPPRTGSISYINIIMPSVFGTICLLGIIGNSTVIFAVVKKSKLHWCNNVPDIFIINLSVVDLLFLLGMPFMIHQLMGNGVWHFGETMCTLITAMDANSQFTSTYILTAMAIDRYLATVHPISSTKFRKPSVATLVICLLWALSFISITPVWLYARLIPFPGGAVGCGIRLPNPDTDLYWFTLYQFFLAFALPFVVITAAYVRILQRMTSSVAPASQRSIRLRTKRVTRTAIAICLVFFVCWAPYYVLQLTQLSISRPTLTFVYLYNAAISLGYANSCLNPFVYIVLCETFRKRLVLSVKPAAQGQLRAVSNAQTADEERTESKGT
T5 sequence (P33032 whole entry): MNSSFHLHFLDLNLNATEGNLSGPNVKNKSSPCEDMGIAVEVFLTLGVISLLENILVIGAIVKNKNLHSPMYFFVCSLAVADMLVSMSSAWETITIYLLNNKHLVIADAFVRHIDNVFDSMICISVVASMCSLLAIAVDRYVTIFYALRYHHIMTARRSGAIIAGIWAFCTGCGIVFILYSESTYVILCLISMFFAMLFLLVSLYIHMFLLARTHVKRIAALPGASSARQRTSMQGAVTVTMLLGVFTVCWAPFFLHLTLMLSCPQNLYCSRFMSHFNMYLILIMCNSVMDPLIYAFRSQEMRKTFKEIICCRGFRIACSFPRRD
T4 sequence (P32245 whole entry): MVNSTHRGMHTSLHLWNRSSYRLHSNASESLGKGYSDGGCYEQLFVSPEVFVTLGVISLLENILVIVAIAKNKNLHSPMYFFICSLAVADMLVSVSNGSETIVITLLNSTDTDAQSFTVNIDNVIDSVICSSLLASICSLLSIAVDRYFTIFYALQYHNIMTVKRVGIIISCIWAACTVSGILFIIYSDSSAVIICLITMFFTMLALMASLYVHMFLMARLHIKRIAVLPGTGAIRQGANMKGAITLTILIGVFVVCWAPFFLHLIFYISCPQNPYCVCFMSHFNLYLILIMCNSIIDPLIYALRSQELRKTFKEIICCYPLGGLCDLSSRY
T1 sequence (P41143 whole entry): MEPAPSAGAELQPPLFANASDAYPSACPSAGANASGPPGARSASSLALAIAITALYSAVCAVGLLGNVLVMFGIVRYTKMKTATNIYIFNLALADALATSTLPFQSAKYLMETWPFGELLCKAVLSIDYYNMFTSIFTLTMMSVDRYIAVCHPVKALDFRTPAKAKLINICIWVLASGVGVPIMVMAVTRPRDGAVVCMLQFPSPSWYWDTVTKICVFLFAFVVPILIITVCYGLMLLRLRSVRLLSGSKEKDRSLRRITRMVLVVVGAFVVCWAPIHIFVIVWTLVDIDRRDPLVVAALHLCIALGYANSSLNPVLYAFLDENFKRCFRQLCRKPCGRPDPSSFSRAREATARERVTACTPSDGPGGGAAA
T3 sequence (P41968 whole entry): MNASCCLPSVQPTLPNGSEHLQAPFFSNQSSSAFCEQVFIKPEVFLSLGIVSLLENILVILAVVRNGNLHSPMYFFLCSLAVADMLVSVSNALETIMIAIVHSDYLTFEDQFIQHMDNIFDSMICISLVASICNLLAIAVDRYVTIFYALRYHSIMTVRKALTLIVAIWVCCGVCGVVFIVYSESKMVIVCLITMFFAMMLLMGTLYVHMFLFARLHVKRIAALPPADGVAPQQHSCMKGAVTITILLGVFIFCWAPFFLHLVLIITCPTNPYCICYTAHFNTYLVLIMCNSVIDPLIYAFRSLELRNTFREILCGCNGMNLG

## NCCC(=O)NC1C(OCc2ccc3ccccc3c2)OC(COCc2ccc(Cl)cc2)C(O)C1OCc1ccccc1 (single isomer, unassigned) [compound 452]
Human δ-opioid (DOP); [3H]-Bremazocine, human DOP membranes
  A1: inhibition of radioligand binding: − (“−” indicates less than 50% inhibition at 10 μM)
Human κ-Opioid (KOP); [3H]-Diprenorphine, human KOP membranes
  A2: inhibition of radioligand binding: − (“−” indicates less than 50% inhibition at 10 μM)
Human Melanocortin (MC3); [125I]-NDP-αMSH, human MC3 membranes, 10 µM
  A3: inhibition of radioligand binding: − (“−” indicates less than 50% inhibition at 10 μM)
Human Melanocortin (MC4); [125I]-NDP-αMSH, human MC4 membranes
  A4: inhibition of radioligand binding: + (“+” indicates greater than 50% inhibition at 10 μM)
Human melanocortin (MC5); [125I]-NDP-αMSH, human MC5 membranes
  A5: inhibition of radioligand binding: + (“+” indicates greater than 50% inhibition at 10 μM)
[1]; [125I]-S36057, human MCH1 membranes, 10 µM
  A6: inhibition of radioligand binding: − (“−” indicates less than 50% inhibition at 10 μM)
Human μ-opioid (MOP); [3H]-Naloxone, human MOP membranes
  A7: inhibition of radioligand binding: − (“−” indicates less than 50% inhibition at 10 μM)
Human neurokinin (NK1); [125I]-Substance P, human NK1 membranes
  A8: inhibition of radioligand binding: + (“+” indicates greater than 50% inhibition at 10 μM)
[2]; [125I]-PYY, human NPY-Y1 membranes
  A9: inhibition of radioligand binding: − (“−” indicates less than 50% inhibition at 10 μM)
Human opioid (ORL1); [125I]-Nociceptin, human ORL1 membranes, 10 µM
  A10: inhibition of radioligand binding: − (“−” indicates less than 50% inhibition at 10 μM)
Mouse urotensin (mUR2); [125I]-Urotensin II, mouse mUR2 membranes
  A11: inhibition of radioligand binding: − (“−” indicates less than 50% inhibition at 10 μM)

## COC[C@H]1OC(OCc2ccccc2)[C@H](NC(=O)CCCN)[C@@H](OCc2cccc(O)c2)[C@@H]1O (stereo partly shown) [compound 136]
Human δ-opioid (DOP); [3H]-Bremazocine
  A1 radioligand binding, percentage inhibition: − (“−” indicates less than 50% inhibition at 10 μM)
Human κ-Opioid (KOP); [3H]-Diprenorphine
  A2 radioligand binding, percentage inhibition: − (“−” indicates less than 50% inhibition at 10 μM)
Human Melanocortin (MC3); [125I]-NDP-αMSH
  A3 radioligand binding, percentage inhibition: − (“−” indicates less than 50% inhibition at 10 μM)
Human Melanocortin (MC4); [125I]-NDP-αMSH
  A4 radioligand binding, percentage inhibition: − (“−” indicates less than 50% inhibition at 10 μM)
Human melanocortin (MC5); [125I]-NDP-αMSH
  A5 radioligand binding, percentage inhibition: − (“−” indicates less than 50% inhibition at 10 μM)
[1]; [125I]-S36057
  A6 radioligand binding, percentage inhibition: − (“−” indicates less than 50% inhibition at 10 μM)
Human μ-opioid (MOP); [3H]-Naloxone
  A7 radioligand binding, percentage inhibition: − (“−” indicates less than 50% inhibition at 10 μM)
Human neurokinin (NK1); [125I]-Substance P
  A8 radioligand binding, percentage inhibition: + (“+” indicates greater than 50% inhibition at 10 μM)
[2]; [125I]-PYY
  A9 radioligand binding, percentage inhibition: − (“−” indicates less than 50% inhibition at 10 μM)
Human opioid (ORL1); [125I]-Nociceptin
  A10 radioligand binding, percentage inhibition: − (“−” indicates less than 50% inhibition at 10 μM)
Mouse urotensin (mUR2); [125I]-Urotensin II
  A11 radioligand binding, percentage inhibition: − (“−” indicates less than 50% inhibition at 10 μM)

## CSC1O[C@H](COCc2ccccc2)[C@@H](O)[C@@H](OCc2ccc(-c3ccccc3)cc2)[C@H]1NC(=O)CNC(=N)N (stereo partly shown) [compound 284]
Human δ-opioid (DOP); [3H]-Bremazocine
  A1: inhibition of radioligand binding, human δ-opioid (DOP): − (“−” indicates less than 50% inhibition at 10 μM)
Human κ-Opioid (KOP); [3H]-Diprenorphine
  A2: inhibition of radioligand binding, human κ-opioid (KOP): − (“−” indicates less than 50% inhibition at 10 μM)
Human Melanocortin (MC3); [125I]-NDP-αMSH
  A3: inhibition of radioligand binding, human melanocortin (MC3): − (“−” indicates less than 50% inhibition at 10 μM)
Human Melanocortin (MC4); [125I]-NDP-αMSH
  A4: inhibition of radioligand binding, human melanocortin (MC4): + (“+” indicates greater than 50% inhibition at 10 μM)
Human melanocortin (MC5); [125I]-NDP-αMSH
  A5: inhibition of radioligand binding, human melanocortin (MC5): + (“+” indicates greater than 50% inhibition at 10 μM)
[1]; [125I]-S36057
  A6: inhibition of radioligand binding, human melanin-concentrating hormone (MCH1): − (“−” indicates less than 50% inhibition at 10 μM)
Human μ-opioid (MOP); [3H]-Naloxone
  A7: inhibition of radioligand binding, human μ-opioid (MOP): − (“−” indicates less than 50% inhibition at 10 μM)
Human neurokinin (NK1); [125I]-Substance P
  A8: inhibition of radioligand binding, human neurokinin (NK1): + (“+” indicates greater than 50% inhibition at 10 μM)
[2]; [125I]-PYY
  A9: inhibition of radioligand binding, human neuropeptide Y (NPY-Y1): − (“−” indicates less than 50% inhibition at 10 μM)
Human opioid (ORL1); [125I]-Nociceptin
  A10: inhibition of radioligand binding, human opioid (ORL1): − (“−” indicates less than 50% inhibition at 10 μM)
Mouse urotensin (mUR2); [125I]-Urotensin II
  A11: inhibition of radioligand binding, mouse urotensin (mUR2): − (“−” indicates less than 50% inhibition at 10 μM)

## CO[C@H]1[C@H](O)[C@@H](COCc2ccc3ccccc3c2)OC(OCCc2ccccc2)[C@@H]1NC(=O)CCCNC(=N)N (stereo partly shown) [compound 116]
Human δ-opioid (DOP); [3H]-Bremazocine
  A1 radioligand binding, percentage inhibition: − (“−” indicates less than 50% inhibition at 10 μM)
Human κ-Opioid (KOP); [3H]-Diprenorphine
  A2 radioligand binding, percentage inhibition: − (“−” indicates less than 50% inhibition at 10 μM)
Human Melanocortin (MC3); [125I]-NDP-αMSH
  A3 radioligand binding, percentage inhibition: − (“−” indicates less than 50% inhibition at 10 μM)
Human Melanocortin (MC4); [125I]-NDP-αMSH
  A4 radioligand binding, percentage inhibition: − (“−” indicates less than 50% inhibition at 10 μM)
Human melanocortin (MC5); [125I]-NDP-αMSH
  A5 radioligand binding, percentage inhibition: + (“+” indicates greater than 50% inhibition at 10 μM)
[1]; [125I]-S36057
  A6 radioligand binding, percentage inhibition: − (“−” indicates less than 50% inhibition at 10 μM)
Human μ-opioid (MOP); [3H]-Naloxone
  A7 radioligand binding, percentage inhibition: − (“−” indicates less than 50% inhibition at 10 μM)
Human neurokinin (NK1); [125I]-Substance P
  A8 radioligand binding, percentage inhibition: + (“+” indicates greater than 50% inhibition at 10 μM)
[2]; [125I]-PYY
  A9 radioligand binding, percentage inhibition: − (“−” indicates less than 50% inhibition at 10 μM)
Human opioid (ORL1); [125I]-Nociceptin
  A10 radioligand binding, percentage inhibition: − (“−” indicates less than 50% inhibition at 10 μM)
Mouse urotensin (mUR2); [125I]-Urotensin II
  A11 radioligand binding, percentage inhibition: − (“−” indicates less than 50% inhibition at 10 μM)

## COC[C@H]1OC(OCc2ccc(-c3ccccc3)cc2)[C@H](NC(=O)CCCNC(=N)N)[C@@H](OCc2ccc(Cl)cc2)[C@@H]1O (stereo partly shown) [compound 13]
Human δ-opioid (DOP); human δ-opioid (DOP) membranes
  A1 radioligand binding inhibition: − (“−” indicates less than 50% inhibition at 10 μM)
Human κ-Opioid (KOP); human κ-opioid (KOP) membranes
  A2 radioligand binding inhibition: − (“−” indicates less than 50% inhibition at 10 μM)
Human Melanocortin (MC3); human melanocortin MC3 membranes
  A3 radioligand binding inhibition: − (“−” indicates less than 50% inhibition at 10 μM)
Human Melanocortin (MC4); human melanocortin MC4 membranes
  A4 radioligand binding inhibition: − (“−” indicates less than 50% inhibition at 10 μM)
Human melanocortin (MC5); human melanocortin MC5 membranes
  A5 radioligand binding inhibition: + (“+” indicates greater than 50% inhibition at 10 μM)
[1]; human MCH1 membranes
  A6 radioligand binding inhibition: + (“+” indicates greater than 50% inhibition at 10 μM)
Human μ-opioid (MOP); human μ-opioid (MOP) membranes
  A7 radioligand binding inhibition: + (“+” indicates greater than 50% inhibition at 10 μM)
Human neurokinin (NK1); human neurokinin NK1 membranes
  A8 radioligand binding inhibition: + (“+” indicates greater than 50% inhibition at 10 μM)
[2]; human NPY-Y1 membranes
  A9 radioligand binding inhibition: − (“−” indicates less than 50% inhibition at 10 μM)
Human opioid (ORL1); human ORL1 membranes
  A10 radioligand binding inhibition: − (“−” indicates less than 50% inhibition at 10 μM)
Mouse urotensin (mUR2); mouse urotensin mUR2 membranes
  A11 radioligand binding inhibition: − (“−” indicates less than 50% inhibition at 10 μM)
